The results in this text go back to patent US10139394B2, “Method for controlling cancer metastasis or cancer cell migration by modulating the cellular level of lysyl tRNA synthetase” (Medicinal Bioconvergence Research Center, priority 2008, dated 2018).

For one experiment, the system named is KRS and EPRS. Kind of experiment: Co-immunoprecipitation of KRS with EPRS (multi-ARS complex). Format: cell-based. The note with it: A549 cells; absence of LY compound; FIG. 12. Here is the method:
In FIG. 7, A549 cells were treated with laminin (10 ug/ml) and the level of 67LR, 37LRP and KRS was determined by Western blotting at the indicated times. Hsp90 and Cadherin were used as markers for cytoplasm and membrane, respectively. In FIG. 8, A549 cells untreated or treated with laminin for 1 h were subjected to immunofluorescence staining with anti-67LR (MLuC5, Santacruz, sc-59732) (red) and -KRS antibodies (green). In FIG. 9, A549 cells were treated with U73122 (U), staurosporin (ST) and LY294002 (LY) that inhibit PLC-gamma, PKC and PI3K, respectively, for 3 hr, then with laminin for 1 hr and checked how these kinase inhibitors would affect the membrane and cytoplasmic level of 67LR and KRS. In FIG. 10, A549 cells were transfected with Myc-KRS and incubated for 24 h. The cells were treated with the indicated chemicals and then with laminin as above. Myc-KRS was immunoprecipitated, and immunoblotted with anti-p-Thr, -Ser, and -Tyr antibodies. In FIG. 11, A549 cells were transfected with Myc-KRS and cultivated for 24 hr. The transfectants were pre-treated with LY294002 for 3 hr and then treated with laminin for 1 h. Myc-KRS was immunoprecipitated and co-precipitation of 67LR was determined by Western blotting. […] EPRS (glutamyl-prolyl-tRNA synthetase) was immunoprecipitated with its specific antibody (AbCam), and co-immunoprecipitation of KRS was determined by Western blotting (upper). […]

The next experiment relates to A549 cells. Kind of experiment: Cell migration assay in Transwell chamber. Format: cell-based. The note with it: laminin 10 μg/ml in lower well, 6 hr, in average, FIG. 24 and 18. The procedure:
In FIG. 18, A549 cells were transfected with the indicated plasmids, incubated in the absence and presence of laminin and their effect on cell migration was determined by measuring the migrated cells in transwell chamber as described. The numbers of the cells passed through the membrane were counted and shown in each panel. The experiments were performed three times. In FIG. 19, the cells treated as above were used to determine MMP-2 activity and level by zymography and Western blotting, respectively. In FIG. 20, Breast carcinoma 4T-1 cells were transfected with the indicated siRNA and subcutaneously injected to the back of Balb/C mice. After 21 days, mouse lungs were isolated and tumor nodules over 1 mm in diameter were counted. In FIG. 21, two different 4T-1 cells stably expressing exogenously introduced KRS (KRS-1 and -2) were also inoculated as above and the tumor nodules were counted 30 days after injection. […]
FIGS. 24 to 27 show effect of intracellular and extracellular KRS on cell migration, protein synthesis and cell cycle. In FIG. 24, Migration of A549 cells incubated in the absence of laminin was determined was determined by measuring the migrated cells in Transwell chamber. […] After 6 hr of incubation, the migrant were counted. […] In FIG. 27, A549 cells transfected as indicated were fixed and stained with propidium iodide, and their cell cycle was determined by flow cytometry. […]

In the case of “laminin: laminin (Engelbreth-Holm-Swarm murine sarcoma) from Sigma”, the “association of KRS with EPRS” value in the experiment with KRS and EPRS is “decreased”. The “Migration of the control cells, enhancement” value in the experiment on A549 cells is recorded as “about 6 fold”.
